{"source": "patent US20090220448A1", "about": "“HAIR CARE COMPOSITIONS AND METHODS FOR INCREASING HAIR DIAMETER AND FOR IMMEDIATE FULLER/THICKER HAIR APPEARANCE” (priority 2008, published 2009)", "test_system": "Primary human dermal papilla cells", "experiment": "Synergy study: survival of metabolically stressed dermal papilla cells (ATP, Cell Titer Glo)", "assay_type": "cell-based", "conditions": "0.05%, 48 hours metabolic stress in reduced media, control 100% water", "method": "The dermal papilla, in normal human hair, is the control center for hair diameter. Increasing survival of dermal papilla cells in situ leads to increased hair diameter. Accordingly, an increase in survival of dermal papilla cells correlates with an increase in hair diameter.\nPrimary human dermal papilla cells were metabolically stressed for 48 hours in reduced standard tissue culture media. During this period of stress the cells were treated with the mixtures or individual ingredients below. After 48 hr the metabolic activity of the cells was measured by the amount of ATP using the Cell Titer Glo™ kit (Promega)."}
{"molecule": "Cn1c(=O)c2c(ncn2C)n(C)c1=O", "note": "[Caffeine]", "values": [{"measurement": "Survival rate: % Change from Control", "value": "+41%"}]}
